Measured values reported in US20160311791A1, “NOVEL TRICYCLIC CALCIUM SENSING RECEPTOR ANTOGONISTS FOR THE TREATMENT OF OSTEOPOSOSIS” (MERCK SHARP & DOHME CORP., priority 2013, published 2016).

Assays:
PTH release = assay: In vivo pharmacodynamic effects: PTH (Rat Intact PTH 1-84 ELISA); details: oral gavage
Method: (§1) Procedures for In Vivo Pharmacodynamic Effects
(§2) The objective of these studies was to assess the effect of compounds on stimulating PTH release and increasing calcium secretion in the rat. Male Sprague-Dawley rats (3-4 months old) were equipped with jugular vein cannulae (JVC) by surgical procedure. The rats were given the compound by oral gavage. Blood was sampled from the JVC at 15 minutes, 30 minutes, 60 minutes, 120 minutes, 240 minutes, 420 minutes, and 24 hrs post compound administration. Plasma was separated and used for a PTH ELISA assay and a calcium concentration assay. After the last blood sampling, the rats were sacrificed under anesthesia by inhalation of CO2. All procedures were conducted in compliance with the Animal Welfare Act, the Guide for the Care and Use of Laboratory Animals and the recommendations of the AVMA Panel on Euthanasia.
(§3) Rat plasma samples were used for measuring serum PTH levels: The Rat Intact PTH 1-84 ELISA kit (Immutopics Cat#60-2500) was used according to the manufacturer's instructions. Total serum calcium determination was made using a calcium arsenazo III reagent (Fisher Scientific Cat # Pointe Scientific Calcium (Arsenazo III) Reagents; Mfr. No.: C7529-500; Qty.: 500 mL. Mfr. No.: C7529-500, Part #23666172) according to the manufacturer's instructions. For these experiments, 2 μl of sample was added to 198 μl of reagent, mixed, and read at 650 nm.

serum calcium = assay: In vivo pharmacodynamic effects: total serum calcium (arsenazo III); details: rat, oral gavage
Method: as §1, §2, §3

human CaSR = target: T1, human CaSR (Homo sapiens, UniProt P41180); assay: CaSR binding assay (radioligand, HEK293 membranes); set-up: expressed in transfected cells; host or cells: HEK293 cell membranes; details: for Ki: membranes of HEK293 cells expressing human CaSR, radio-labeled EXAMPLE 25; for IC50: read-out: IC50s (high affinity for the human calcium sensing receptor and potent antagonist activity)
T1 sequence (P41180 20-1078): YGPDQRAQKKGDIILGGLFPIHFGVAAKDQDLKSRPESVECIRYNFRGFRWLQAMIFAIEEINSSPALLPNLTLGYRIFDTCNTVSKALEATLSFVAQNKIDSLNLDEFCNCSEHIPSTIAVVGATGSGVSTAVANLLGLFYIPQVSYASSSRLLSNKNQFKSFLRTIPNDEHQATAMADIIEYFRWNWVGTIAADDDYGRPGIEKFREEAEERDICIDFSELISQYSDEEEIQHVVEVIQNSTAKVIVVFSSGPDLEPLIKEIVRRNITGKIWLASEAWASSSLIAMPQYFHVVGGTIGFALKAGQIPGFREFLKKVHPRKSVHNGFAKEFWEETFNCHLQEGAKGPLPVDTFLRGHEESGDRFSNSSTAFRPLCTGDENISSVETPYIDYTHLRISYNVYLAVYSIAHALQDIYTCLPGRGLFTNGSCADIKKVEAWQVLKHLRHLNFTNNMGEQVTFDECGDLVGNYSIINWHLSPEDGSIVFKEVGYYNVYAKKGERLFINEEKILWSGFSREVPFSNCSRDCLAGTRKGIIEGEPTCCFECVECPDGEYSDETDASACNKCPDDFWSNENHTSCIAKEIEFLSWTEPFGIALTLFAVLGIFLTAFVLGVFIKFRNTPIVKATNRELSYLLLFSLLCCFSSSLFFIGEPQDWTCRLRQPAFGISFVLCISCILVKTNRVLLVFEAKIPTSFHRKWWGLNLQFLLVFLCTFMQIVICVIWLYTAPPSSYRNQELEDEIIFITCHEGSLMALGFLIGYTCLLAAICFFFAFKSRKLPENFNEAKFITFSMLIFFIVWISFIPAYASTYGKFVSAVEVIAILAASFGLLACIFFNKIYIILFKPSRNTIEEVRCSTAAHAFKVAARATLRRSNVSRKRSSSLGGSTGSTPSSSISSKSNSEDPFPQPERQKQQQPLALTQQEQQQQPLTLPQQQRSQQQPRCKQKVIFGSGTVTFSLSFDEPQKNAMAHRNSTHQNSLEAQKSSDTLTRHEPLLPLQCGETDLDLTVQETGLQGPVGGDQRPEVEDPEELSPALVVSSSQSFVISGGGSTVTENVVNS
Method: Procedures for CaSR Binding Assay
Membrane preparations from HEK293 cells expressing the human CaSR were generated. The cells were cultured and then washed twice with 1×PBS. The cells were dissociated by adding 4 ml pre-warmed 0.25% Trypsin-EDTA, and by incubating the flask at RT for 3 minutes. 10 ml media was dispensed over the cell layer surface, and the cells were harvested into a centrifuge tube. The cells were centrifuged at 200×g for 10 minutes. The cell pellet was suspended in 30 ml of membrane preparation buffer and then homogenized on ice twice at 16000 rpm for 10 seconds. Following homogenization, the membrane was collected by centrifuge at 40000×g for 30 minutes at 4° C., washed twice with 30 ml membrane preparation buffer, and centrifuged again at 40000×g for 10 minutes. The membrane pellet was suspended in 30 ml membrane preparation buffer (50 mM Tris, pH7.0, 10 mM MgCl, Proteinase inhibitor (Roche, REF 04693116001), and then homogenized on ice once at 16000 rpm for 10 seconds. The total protein concentration was measured using a BCA kit. The membrane protein concentration was adjusted to 2.4 mg/ml and then diluted with binding buffer (10 mM HEPES, pH7.4, 130 mM NaCl, 0.4 mM CaCl2, 5 mM MgCl2, 1 mM EGTA, 10 mM glucose, 0.1% BSA) to 0.33 μg/μl. The final amount in the binding assay was 20 μg/well. Test compound was serially diluted manually by using BIOHIT multi-channel pipettor in 100% DMSO (10 point, 3-fold dilution of each compound from 5.0 μM in 100% DMSO). 4 μl of serially diluted compound was manually transferred into a second assay microplate that contained 196 μl of binding assay buffer to create the intermediate dilution plate. For background, 20 μl of assay buffer was added to each control well. […] The binding reaction used a 100 μl reaction volume consisting of 10 μl of test compound, 30 μl of diluted radio-labelled compound, and 60 μl of membrane solution (0.33 μg/μl). The reaction mixture was incubated at room temperature for one hour. The Grade GF/C filter plates were presoaked in 0.3% PEI (protect from light) for 60 minutes at room temperature. The plate was then washed three times with ice-cold wash buffer (25 mM Tris-HCl, PH7.4, 130 mM NaCl, 5 mM MgCl2, 0.4 mM CaCl2, 0.1% BSA) prior to filtration of the binding samples. The binding reaction was terminated by rapid filtration of 100 μl binding mixture through the GF/C plate. Plates were then washed 6 times with ice-cold wash buffer. Filter plates were dried with a hair dryer for 20 minutes. 60 μl/well MICROSCINT 20 (a cocktail for microplates) was added to the bottom of sealed filters, then the filters were sealed at the top with tape. Bound radioactivity was counted in a TOPCOUNT scintillation counter. Exemplary compounds bind in the 1-500 nM range.

Structure (SMILES)	Maximum Change in PTH (fold) (PTH release; at 30 mpk)	Maximum Increase in Calcium (mg/dl) (serum calcium; at 30 mpk)	Ki (human CaSR)	IC50 (human CaSR)	Maximum Change in PTH (fold) (PTH release; at 10 mpk)	Maximum Increase in Calcium (mg/dl) (serum calcium; at 10 mpk)
C[C@@H](OC[C@H](O)CNC(C)(C)Cc1ccc2ccccc2c1)c1cccc2c1O[C@@H]1[C@@H](C(=O)O)[C@H]21 [Example 1-1]	5.8 (at fold	1.5 (at mg/dl	18 nM	18 nM		
C[C@@H](OC[C@H](O)CNC(C)(C)Cc1ccc2ccccc2c1)c1cccc2c1[C@@H]1[C@H](O2)[C@H]1C(=O)O [Example 5-1]			7 nM	7 nM	8 (at fold	2.3 (at mg/dl
CSc1ccc(CC(C)(C)NC[C@@H](O)CO[C@H](C)c2ccc(C)c3c2C2[C@H](O3)[C@H]2C(=O)O)cc1F (stereo partly drawn) [Example 8-24]	4 (at fold	1 (at mg/dl	29 nM	29 nM		
